For 1 molecule, Km results are on record in paper PMC10094929, “Determination of Phenol with Peroxidase Immobilized on CaCO3” (International Journal of Molecular Sciences, 2023).

The assay has as its system T1, native peroxidase (horseradish peroxidase).
T1 construct: gene PRXC1A
As to conditions: free enzyme; phenol varied; 4-aminoantipyrine 0.3 mmol/L, hydrogen peroxide 4.68 mmol/L; 0.1 M phosphate-buffered saline pH 7.2; 24 °C.

Regarding `Oc1ccccc1` [phenol], the Km (usually the concentration of substrate that gives half-maximal velocity) is 994 µM.
